# Measured values taken from patent US9637724B2, “Selective binding of biological targets to solid phase ureides” (AGENCY FOR SCIENCE, TECHNOLOGY AND RESEARCH, priority 2012, dated 2017).
# Tests used:
# Bacteriophage M13 = assay: Co-precipitation of bacteriophage M13 from phage cell culture supernatant with allantoin
# Method: Phage cell culture supernatant was co-precipitated by addition of allantoin at a weight to volume ratio of 7%. pH was about 7.0. Conductivity was 20 mS. The virus was recovered by dissolving the allantoin in 50 mM Hepes, 150 mM NaCl, pH 7.0. Phage recovery was about 70%. Greater than 99% of proteins and small molecule contaminants were eliminated with the supernatant.
# Example 1 was repeated at pH values of 5.0, 6.0, and 8.0% allantoin.
# Example 1 was repeated at NaCl concentrations corresponding to conductivity values of 40, 60, 80, and 100 mS/cm. These salt concentrations correspond with about 400, 600, 800, and 1000 mM NaCl. […] Optimal co-precipitation occurred at 400 mM NaCl. This was interpreted to reflect suppression of mutual electrostatic repulsion among viral particles with the result of supporting higher packing density of the particles on the ureide surface.
# Example 1 was repeated with 3%, 5%, and 10% allantoin. Co-precipitation efficiency, as judged by removal from supernatant, was directly correlated with allantoin concentration. Recovery increased from about 31% to 57% to 91% respectively.
# Phage cell culture supernatant was precipitated with 7% allantoin at 400 mM NaCl, pH 6.0. The majority of proteins and small molecule contaminants were eliminated with the supernatant. Recovery was estimated to be in excess of 90%. […]
# Attenuated Dengue virus = assay: Co-precipitation of attenuated Dengue virus with allantoin; details: 7% allantoin, 600 mM NaCl, pH 6.0
# Method: Attenuated Dengue virus was combined with 7% allantoin at 600 mM NaCl, pH 6.0. The supernatant was removed. The virus was recovered by dissolving the allantoin in 50 mM Hepes, pH 7.0. Recovery was estimated by immunoassay to be 70-80%.
# minute virus of mice = assay: Co-precipitation of minute virus of mice, infectivity testing of supernatant; details: 10% allantoin, physiological conditions, 10^10 particles per mL
# Excerpt: A viral culture containing 10^10 particles per mL of minute virus of mice was coprecipitated under physiological conditions by addition of allantoin in an amount of 10%. Infectivity testing of the supernatant documented removal of 99.9% of the virus.
# murine leukemia virus [1] = assay: Co-precipitation of murine leukemia virus, infectivity testing of supernatant; details: 10% allantoin, physiological conditions, 10^10 particles per mL
# Excerpt: A viral culture containing 10^10 particles per mL of murine leukemia virus was coprecipitated under physiological conditions by addition of allantoin in an amount of 10%. Infectivity testing of the supernatant documented removal of 99.9% of the virus.
# endotoxin [2] = assay: Endotoxin reduction from an ovalbumin solution; details: start about 50 EU/mL
# Method: A sample of ovalbumin in 50 mM phosphate, 100 mM NaCl, pH 7.2, contaminated with about 50 EU/mL of endotoxin, was saturated with 3% allantoin, incubated for 15 minutes, following which the precipitate was removed by membrane filtration. Endotoxin content of the supernatant was reduced by more than 95%, to less than 2 EU per mL. The experiment was repeated with 10% allantoin.
# endotoxin [3] = assay: Antibody recovery and endotoxin reduction from an IgG-endotoxin mixture
# Method: Endotoxin was added to 1 mg/mL human IgG in 5 mM HEPES 100 mM NaCl pH 7.0 to 22,000 EU/ml. 2% (w/v) allantoin were added to aliquots of this mixture and allowed to mix for 15 minutes at room temperature. The suspension was clarified by centrifugation. Protein and endotoxin concentrations were measured to calculate antibody recovery and endotoxin removal. 2% (w/v) allantoin reduced endotoxin twofold. Antibody recovery was unaffected by the amount of allantoin. In a subsequent series of experiments, the amount of allantoin was increased in increments, up to 10%. Antibody recovery diminished gradually to about 93% at 10% allantoin, while endotoxin removal efficiency increased to about 99%. These experiments illustrate that the use of excessive amounts of allantoin can result in a loss of some proteins. In such cases, the person of skill in the art can make an informed decision as to the most productive balance of endotoxin removal versus protein recovery, and adjust the availability of the solid phase ureide accordingly. Additional experiments with proteins ranging in size from about 12 kDa to 1 MDa indicated a definite trend whereby the loss of protein increases with increasing protein size.
# endotoxin [4] = assay: Comparison of allantoin and uric acid for removal of endotoxin from human IgG solution; details: 1, 2 and 4% (w/v), 13,000 EU/ml, 6.7 mg/mL human IgG, 15 minutes
# Method: Endotoxin was added to a 6.7 mg/mL solution of human IgG in 5 mM Hepes, 100 mM NaCl, pH 7.0 to a final concentration of 13,000 EU/ml. 1, 2 and 4% (w/v) of either allantoin or uric acid was added to aliquots of this mixture and allowed to mix for 15 minutes at room temperature. As a control, equal amounts of potato starch were added to a separate series. Finally, the reaction mixtures were clarified by centrifugation. Protein and endotoxin concentrations were measured to calculate antibody recovery and endotoxin removal. There was no reduction in endotoxin with the addition of starch. Uric acid produced a 4-fold reduction at all concentrations. Allantoin reduced endotoxin from 5-10-fold across the experiments (low to high). Antibody recovery was greater than 90% throughout. Besides the poorer performance of uric acid, the fact that results were unchanged as a function of the amount of uric acid are puzzling, and highlight allantoin as being a preferable ureide to begin with.
# [5] = Allantoin plus ethacridine treatment of IgG cell culture harvest, then TREN / T-butyl column; details: 1% allantoin with 0.01% ethacridine
# Method: Cell-containing mammalian cell culture harvest containing a monoclonal IgG was treated by allantoin affinity with 1% allantoin in combination with 0.01% ethacridine. The sample, at a pH of about 7.2 and a conductivity of about 13.5 mS, these conditions corresponding with so-called physiological conditions, was passed over a column packed chromatography media including equal amounts of the metal affinity ligand TREN (BioWorks TREN hi-sub) and a hydrophobic ligands (Macroprep T-butyl). Antibody recovery following the previous steps was 99%. DNA was reduced by 3.5 logs, and virus was reduced by 4-5 logs. In addition, the treated sample was sparking clear, with a turbidity of about 2.0 NTU, indicating near-total removal of particulates.
# The form or example 15 was followed except increasing the amount of allantoin over the course of a series of experiments, including 2%, 4%, and 8%. Antibody recovery decreased in a roughly linear fashion in inverse proportion to the amount of allantoin. Whereas recovery at 1% (example 15) was 99%, recovery at 8% was about 87%.
# IgG processed as described in examples 15 and 16 was analyzed by size exclusion chromatography. […] Where aggregate content following example 15 was about 5%, it was reduced to about 1.3% at 8% allantoin. Aggregate content of membrane clarified cell harvest lacking allantoin was about 19%. […]
# [6] = Cell culture harvest treated with allantoin and ethacridine, then iminodiacetic acid / TREN / butyl particle assembly; details: 1% allantoin, 0.025% ethacridine
# Method: 1 L of cell culture harvest was treated by addition of 1% allantoin and 0.025% ethacridine and incubated stirring for 15 minutes, after which the cells and other particulates were removed by centrifugation. The supernatant was passed through an assembly containing equal proportions of styrene divinylbenzene particles substituted with iminodiacetic acid, agarose particles substituted with TREN, and acrylate particles substituted with butyl residues, with a combined volume of 50 mL, dimensions of 2.6×10 cm, and a flow rate of 25 mL/min. Initial aggregate content of greater than 12% was reduced to less than 0.1%. Excess ethacridine was removed. Host protein contamination was reduced 60%. DNA, as measured by qPCR was reduced by 6 logs. Antibody recovery was 99%.
# [7] = system: purified DNA from salmon sperm; assay: Treatment of purified DNA with allantoin; details: antibody-containing protein preparations, previous examples
# Method: A 1 mg/mL preparation of purified DNA from salmon sperm was treated with 5% allantoin. More than 95% of the DNA remained soluble in the supernatant. This highlights the utility of separating virus or endotoxin contaminants from DNA preparations, such as plasmid preparations, which is otherwise extremely difficult because all three bind strongly to electropositive surfaces such as anion exchangers. […] The apparent discrepancy appears to be resolved by allantoin having little or no inherent affinity for DNA, but a very high affinity for DNA associated with other molecule, especially including DNA-compaction proteins or other compound associations of DNA with chromosomal substructures particularly including nucleosomes and their prokaryotic analogues. This further highlights the point that applications to purification of polynucleotides will likely benefit in particular from being conducted at high salt concentrations and/or the presence of organic modulators that discourage nonspecific formation of polynucleotide complexes with contaminants.
# murine leukemia virus [8] = assay: Enhancement of virus inactivation at low pH, virus infectivity; details: pH 4 plus 10% allantoin
# Method: A cell culture supernatant containing about 10^10 particles of murine leukemia virus per mL was split into 10 aliquots. Half of the aliquots were treated by reduction of pH to 4 for the purpose of inactivating the virus. The other half was treated by the same reduction or pH plus the addition of 10% allantoin. Aliquots representing treatment at 1, 5, 10, 15, and 60 minutes were evaluated for virus infectivity. At 1 minute, inactivation absent allantoin was 1.2 logs versus 2.4 logs with allantoin. At 5 minutes, inactivation absent allantoin was 3.2 logs versus 4.5 logs with allantoin. At 10 minutes, inactivation absent allantoin was 4.3 logs versus 5.4 logs with allantoin. At 15 minutes, inactivation absent allantoin was 5.1 logs versus 5.6 logs with allantoin. At 60 minutes, inactivation absent allantoin was 5.4 logs versus 5.6 logs with allantoin. Since the sensitivity of the infectivity assay is about 5.5 logs, it is likely that the allantoin inclusion increases the level of inactivation at all time points, in addition to accelerating inactivation. It will be apparent to the person of skill in the art that combination of allantoin with other virus inactivation methods will likely have a similar enhancing effect.
# endotoxin [9] = assay: Endotoxin removal during purification of a DNA plasmid from E. coli lysate; details: 10% allantoin, 15 minutes
# Method: Powdered allantoin was added to a final concentration of 10% in a filtered E. coli lysate containing a DNA plasmid. The mixture was stirred for 15 minutes then the solid allantoin was removed by microfiltration. 96.7% of the endotoxin was removed with the allantoin. 80% of the DNA plasmid was recovered in the filtrate. […] From the results given in the previous Examples, it will be apparent to the person of ordinary skill, that in the case of plasmids produced in mammalian cells, allantoin treatment will offer the additional benefit of virus removal.
# [10] = cited from earlier work
compound,measurement,setting,value
NC(=O)NC1NC(=O)NC1=O (stereo not drawn) [allantoin],virus eliminated in the precipitate,"Bacteriophage M13; 5% allantoin, pH about 7.0, about 15 mS",About 60%
same,proteins and small molecule contaminants eliminated with the supernatant,"Bacteriophage M13; 7% allantoin, pH about 7.0, 20 mS",Greater than 99%
same,Host protein contamination reduced by,Attenuated Dengue virus,99.3%
same,removal of the virus (infectivity testing of supernatant),minute virus of mice,99.9%
same,removal of the virus (infectivity testing of supernatant),murine leukemia virus [1],99.9%
same,Endotoxin content of the supernatant reduced by,"endotoxin [2]; 3% allantoin, 15 minutes",more than 95%
same,Endotoxin reduced by,endotoxin [2]; 10% allantoin,more than 99.5%
same,endotoxin reduction,"endotoxin [3]; 2% (w/v) allantoin, 22,000 EU/ml, 1 mg/mL human IgG, 15 minutes",twofold
same,endotoxin removal efficiency,endotoxin [3]; 10% allantoin,about 99%
same,reduction in endotoxin,endotoxin [4],5-10 fold
same,DNA reduced by,[5],3.5 logs
same,virus reduced by,[5],4-5 logs
same,DNA as measured by qPCR reduced by,[6],6 logs
same,Host protein contamination reduced,[6],60%
same,DNA levels reduced by,[7],98 to 99%
same,virus inactivation,murine leukemia virus [8]; 1 minute,2.4 logs
same,virus inactivation,murine leukemia virus [8]; 5 minutes,4.5 logs
same,virus inactivation,murine leukemia virus [8]; 10 minutes,5.4 logs
same,virus inactivation,murine leukemia virus [8]; 15 minutes,5.6 logs
same,virus inactivation,murine leukemia virus [8]; 60 minutes,5.6 logs
same,endotoxin removed with the allantoin,endotoxin [9],96.7%
same,saturation concentration,[10]; aqueous solutions,about 36 mM
O=C1CNC(=O)N1 [hydantoin],solubility relative to allantoin,[10]; times more soluble than allantoin,roughly 10 times
O=c1[nH]c(=O)c2[nH]c(=O)[nH]c2[nH]1 [uric acid],reduction in endotoxin,endotoxin [4],4 fold
